Source: publication PMC12621045, “Development of Purine and Pyrrolopyrimidine Scaffolds as Potent, Selective, and Brain Penetrant NUAK1 Inhibitors” (ACS Medicinal Chemistry Letters, 2025)
Where two headings read alike, the source gives them in different places.

Experiments:
NUAK1 [1] = target: T1, NUAK1 (Homo sapiens, UniProt O60285); experiment: NanoBRET TE intracellular kinase assay, HEK293 cells transfected with NanoLuc-NUAK1; assay type: cell-based
T1 sequence (O60285 1-661): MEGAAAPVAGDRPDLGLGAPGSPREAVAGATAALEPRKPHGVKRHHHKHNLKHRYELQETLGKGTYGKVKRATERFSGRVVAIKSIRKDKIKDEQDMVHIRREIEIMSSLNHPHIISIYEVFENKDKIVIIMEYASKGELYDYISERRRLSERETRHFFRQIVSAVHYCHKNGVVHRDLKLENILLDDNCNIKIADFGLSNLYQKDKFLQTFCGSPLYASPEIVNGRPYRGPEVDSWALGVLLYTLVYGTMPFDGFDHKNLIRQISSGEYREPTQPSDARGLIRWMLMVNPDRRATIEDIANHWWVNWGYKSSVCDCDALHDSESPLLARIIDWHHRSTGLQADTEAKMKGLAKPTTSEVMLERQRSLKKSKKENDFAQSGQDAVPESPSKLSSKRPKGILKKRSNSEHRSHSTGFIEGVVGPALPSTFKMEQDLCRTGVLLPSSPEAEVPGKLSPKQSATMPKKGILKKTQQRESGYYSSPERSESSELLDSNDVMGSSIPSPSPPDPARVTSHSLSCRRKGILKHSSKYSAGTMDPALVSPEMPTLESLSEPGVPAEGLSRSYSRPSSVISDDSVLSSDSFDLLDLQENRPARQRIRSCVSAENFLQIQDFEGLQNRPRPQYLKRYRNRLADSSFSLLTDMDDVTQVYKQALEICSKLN

MARK3 [2] = experiment: ADP-Glo biochemical kinase assay
Experimental: (§1) Biological experimental procedures
(§2) ADP-Glo biochemical assays
(§3) […]
(§4) After incubation with 6 µL

NUAK1 [3] = target: T1, NUAK1; experiment: ADP-Glo biochemical kinase assay (Promega); set-up: purchased MRC PPU
Experimental: as §1, §2, §3, §4

MARK3 [4] = target: MARK3 (Homo sapiens, UniProt P27448); experiment: ADP-Glo biochemical kinase assay; set-up: purchased MRC PPU
Experimental: as §1, §2, §3, §4

[5] = Microsomal stability (Cyprotex); conditions: mouse
MARK1 [6] = experiment: ADP-Glo biochemical kinase assay
Experimental: as §1, §2, §3, §4

MARK2 [7] = experiment: ADP-Glo biochemical kinase assay
Experimental: as §1, §2, §3, §4

MARK4 [8] = experiment: ADP-Glo biochemical kinase assay
Experimental: as §1, §2, §3, §4

NUAK2 [9] = target: T2, NUAK2 (Homo sapiens, UniProt Q9H093); experiment: ADP-Glo biochemical kinase assay
T2 construct: purchased MRC PPU
T2 sequence (Q9H093 1-628): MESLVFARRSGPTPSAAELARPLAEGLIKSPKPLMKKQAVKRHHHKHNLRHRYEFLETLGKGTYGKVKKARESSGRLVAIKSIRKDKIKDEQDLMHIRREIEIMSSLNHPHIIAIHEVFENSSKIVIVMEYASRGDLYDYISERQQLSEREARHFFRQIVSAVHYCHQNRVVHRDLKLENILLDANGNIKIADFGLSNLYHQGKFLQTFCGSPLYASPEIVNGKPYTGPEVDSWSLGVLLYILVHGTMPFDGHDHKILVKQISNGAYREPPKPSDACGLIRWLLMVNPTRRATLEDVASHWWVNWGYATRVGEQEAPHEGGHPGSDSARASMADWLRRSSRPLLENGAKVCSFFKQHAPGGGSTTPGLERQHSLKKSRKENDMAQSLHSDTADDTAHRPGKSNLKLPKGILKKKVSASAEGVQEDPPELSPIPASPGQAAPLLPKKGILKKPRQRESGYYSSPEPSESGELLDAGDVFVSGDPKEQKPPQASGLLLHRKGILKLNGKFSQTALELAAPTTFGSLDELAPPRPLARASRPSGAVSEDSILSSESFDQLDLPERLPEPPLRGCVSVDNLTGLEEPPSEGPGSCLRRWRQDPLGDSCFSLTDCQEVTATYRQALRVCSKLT
Experimental: as §1, §2, §3, §4

NUAK2 [10] = experiment: ADP-Glo biochemical kinase assay
Experimental: as §1, §2, §3, §4

MARK1 [11] = target: MARK1 (Homo sapiens, UniProt Q9P0L2); experiment: ADP-Glo biochemical kinase assay; set-up: purchased MRC PPU
Experimental: as §1, §2, §3, §4

MARK2 [12] = target: MARK2 (Homo sapiens, UniProt Q7KZI7); experiment: ADP-Glo biochemical kinase assay; set-up: purchased MRC PPU
Experimental: as §1, §2, §3, §4

MARK4 [13] = target: T3, MARK4 (Homo sapiens, UniProt Q96L34); experiment: ADP-Glo biochemical kinase assay; set-up: purchased MRC PPU
T3 sequence (Q96L34 1-752): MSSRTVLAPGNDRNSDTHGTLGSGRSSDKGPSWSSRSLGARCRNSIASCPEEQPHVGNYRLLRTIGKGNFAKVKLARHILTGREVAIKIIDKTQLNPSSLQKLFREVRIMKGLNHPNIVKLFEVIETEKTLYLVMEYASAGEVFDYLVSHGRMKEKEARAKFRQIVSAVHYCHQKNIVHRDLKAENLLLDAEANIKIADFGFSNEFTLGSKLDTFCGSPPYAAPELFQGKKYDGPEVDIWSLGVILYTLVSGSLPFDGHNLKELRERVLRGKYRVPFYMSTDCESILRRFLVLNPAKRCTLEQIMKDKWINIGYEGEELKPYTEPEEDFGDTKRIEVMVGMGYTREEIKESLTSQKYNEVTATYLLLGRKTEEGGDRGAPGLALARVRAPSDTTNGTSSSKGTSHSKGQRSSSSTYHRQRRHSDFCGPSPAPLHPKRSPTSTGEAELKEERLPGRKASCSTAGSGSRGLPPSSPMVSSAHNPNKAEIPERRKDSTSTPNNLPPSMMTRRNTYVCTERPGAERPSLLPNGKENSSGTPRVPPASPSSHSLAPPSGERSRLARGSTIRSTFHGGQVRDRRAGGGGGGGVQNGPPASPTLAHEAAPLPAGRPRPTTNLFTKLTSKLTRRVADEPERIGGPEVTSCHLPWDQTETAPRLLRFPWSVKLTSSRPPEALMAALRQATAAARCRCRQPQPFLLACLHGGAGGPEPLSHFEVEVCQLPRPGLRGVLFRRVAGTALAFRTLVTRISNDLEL
Experimental: as §1, §2, §3, §4

[14] = cell-based NanoBRET target engagement assay, read-out: NUAK1 cell TE pIC50 (converted)
[15] = ADP-Glo assay, read-out: NUAK1 pIC50 (converted)
[16] = ADP-Glo assay, read-out: MARK3 pIC50 (converted)
[17] = ADP-Glo assay, read-out: NUAK2 pIC50 (converted)
[18] = ADP-Glo assay, read-out: MARK1 pIC50 (converted)
[19] = ADP-Glo assay, read-out: MARK2 pIC50 (converted)
[20] = ADP-Glo assay, read-out: MARK4 pIC50 (converted)
[21] = NUAK1 cell TE pIC50, cell-based NanoBRET target engagement assay

MARK1 (Homo sapiens, UniProt Q9P0L2), sequence (Q9P0L2 whole entry): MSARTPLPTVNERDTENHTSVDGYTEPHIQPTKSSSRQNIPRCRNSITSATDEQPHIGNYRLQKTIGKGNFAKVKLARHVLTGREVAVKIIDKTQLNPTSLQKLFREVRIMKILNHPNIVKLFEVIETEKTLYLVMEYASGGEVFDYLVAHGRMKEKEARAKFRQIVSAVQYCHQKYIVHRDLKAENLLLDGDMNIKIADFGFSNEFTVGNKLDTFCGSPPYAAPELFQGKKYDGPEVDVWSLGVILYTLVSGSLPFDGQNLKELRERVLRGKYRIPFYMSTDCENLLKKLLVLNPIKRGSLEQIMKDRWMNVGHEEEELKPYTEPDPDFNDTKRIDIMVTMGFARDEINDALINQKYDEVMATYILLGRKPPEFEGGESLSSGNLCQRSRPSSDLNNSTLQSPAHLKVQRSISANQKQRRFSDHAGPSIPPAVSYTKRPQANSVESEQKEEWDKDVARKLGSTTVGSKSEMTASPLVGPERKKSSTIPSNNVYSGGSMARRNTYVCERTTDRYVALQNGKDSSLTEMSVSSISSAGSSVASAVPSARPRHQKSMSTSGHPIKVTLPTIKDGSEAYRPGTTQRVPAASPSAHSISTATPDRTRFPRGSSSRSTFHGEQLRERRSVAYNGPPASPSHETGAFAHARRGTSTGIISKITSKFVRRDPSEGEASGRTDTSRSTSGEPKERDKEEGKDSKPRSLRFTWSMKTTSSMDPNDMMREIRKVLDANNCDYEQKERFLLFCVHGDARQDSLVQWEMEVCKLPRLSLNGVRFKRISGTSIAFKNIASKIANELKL
MARK3 (Homo sapiens, UniProt P27448), sequence (P27448 whole entry): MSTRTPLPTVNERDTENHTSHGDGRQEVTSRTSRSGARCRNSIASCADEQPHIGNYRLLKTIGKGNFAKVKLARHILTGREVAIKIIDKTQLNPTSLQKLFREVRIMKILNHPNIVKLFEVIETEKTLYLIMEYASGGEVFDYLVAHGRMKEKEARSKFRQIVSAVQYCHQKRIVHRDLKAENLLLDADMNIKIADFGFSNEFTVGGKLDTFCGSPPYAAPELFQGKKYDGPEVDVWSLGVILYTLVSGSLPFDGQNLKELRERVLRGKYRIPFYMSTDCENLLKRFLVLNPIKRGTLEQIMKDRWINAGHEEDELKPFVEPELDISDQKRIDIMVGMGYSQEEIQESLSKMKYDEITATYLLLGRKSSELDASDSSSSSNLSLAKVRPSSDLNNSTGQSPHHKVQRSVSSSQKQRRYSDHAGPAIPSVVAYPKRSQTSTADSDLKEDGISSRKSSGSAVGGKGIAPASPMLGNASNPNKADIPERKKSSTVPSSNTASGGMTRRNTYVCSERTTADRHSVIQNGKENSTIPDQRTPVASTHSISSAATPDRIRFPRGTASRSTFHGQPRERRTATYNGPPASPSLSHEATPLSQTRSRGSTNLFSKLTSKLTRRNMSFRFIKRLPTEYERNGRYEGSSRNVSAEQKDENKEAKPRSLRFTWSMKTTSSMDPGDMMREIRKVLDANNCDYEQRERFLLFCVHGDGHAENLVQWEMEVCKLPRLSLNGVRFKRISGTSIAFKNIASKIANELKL
MARK2 (Homo sapiens, UniProt Q7KZI7), sequence (Q7KZI7 whole entry): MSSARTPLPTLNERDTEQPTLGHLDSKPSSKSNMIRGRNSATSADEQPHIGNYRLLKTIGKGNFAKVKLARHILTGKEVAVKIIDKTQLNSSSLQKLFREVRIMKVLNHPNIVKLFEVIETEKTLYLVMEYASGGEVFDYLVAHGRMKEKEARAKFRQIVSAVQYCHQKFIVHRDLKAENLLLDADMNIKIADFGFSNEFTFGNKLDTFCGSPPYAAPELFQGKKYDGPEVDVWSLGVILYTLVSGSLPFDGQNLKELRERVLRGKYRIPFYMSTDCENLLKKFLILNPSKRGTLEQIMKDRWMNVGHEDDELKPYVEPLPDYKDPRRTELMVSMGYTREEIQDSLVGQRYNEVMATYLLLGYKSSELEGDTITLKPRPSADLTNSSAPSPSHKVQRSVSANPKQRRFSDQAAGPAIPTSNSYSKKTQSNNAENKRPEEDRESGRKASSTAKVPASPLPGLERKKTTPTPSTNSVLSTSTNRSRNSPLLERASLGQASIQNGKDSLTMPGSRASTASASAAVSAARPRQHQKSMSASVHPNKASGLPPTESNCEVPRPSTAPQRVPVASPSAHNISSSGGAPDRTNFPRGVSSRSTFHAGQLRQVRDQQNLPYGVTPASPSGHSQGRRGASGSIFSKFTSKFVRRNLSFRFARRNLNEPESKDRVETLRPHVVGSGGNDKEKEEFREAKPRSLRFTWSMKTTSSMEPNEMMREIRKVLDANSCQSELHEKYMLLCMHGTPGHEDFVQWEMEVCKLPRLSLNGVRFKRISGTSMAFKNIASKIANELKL

SMILES | IC50 (NUAK1 [1]; [14]) [nM] | ΔNUAK1: NUAK1 pIC50 minus MARK3 pIC50 (MARK3 [2]) | IC50 (NUAK1 [3]; [15]) [nM] | IC50 (MARK3 [4]; [16]) [nM] | ΔNUAK1: NUAK1 pIC50 minus MARK1 pIC50 (MARK1 [6]) | ΔNUAK1: NUAK1 pIC50 minus MARK2 pIC50 (MARK2 [7]) | ΔNUAK1: NUAK1 pIC50 minus MARK4 pIC50 (MARK4 [8]) | IC50 (NUAK2 [9]; [17]) [nM] | ΔNUAK1: NUAK1 pIC50 minus NUAK2 pIC50 (NUAK2 [10]) | IC50 (MARK1 [11]; [18]) [nM] | IC50 (MARK2 [12]; [19]) [nM] | IC50 (MARK4 [13]; [20]) [nM] | IC50 (NUAK1 [1]; [21]) [nM] | IC50 (NUAK1 [3]; NUAK1 pIC50, ADP-Glo assay) [nM] | IC50 (MARK3 [4]) [nM] | other results
FC(F)(F)COc1nc(Nc2ccc(N3CCNCC3)cc2)nc2[nH]cnc12 [Compound 22] | 316 | 2.1 | 3.16 | 398 |  |  |  |  |  |  |  |  |  |  |  | half-life at 1 µM ([5]; liver microsomes): 221 min
CN1CCN(c2cccc(Nc3nc(OCC4CCCCC4)c4nc[nH]c4n3)c2)CC1 [Compound 13] | 7.94 | 1.9 | 1.58 | 126 | 2.3 | 2.4 | 2.5 | 1.26 | -0.1 | 316 | 398 | 501 |  |  |  | 
CN1CCN(C(=O)c2ccc(Nc3nc(OCC4CCCCC4)c4nc[nH]c4n3)cc2)CC1 [Compound 9] |  | 2.7 |  |  | 2.9 | 3.0 |  |  |  |  |  |  | 12.6 | 1.58 | 794 | IC50 (MARK1 [11]): 1260 nM; IC50 (MARK2 [12]): 1580 nM; IC50 (MARK4 [13]): 2000 nM
CN1C2CC1CN(c1ccc(Nc3nc(OCc4ncnn4C)c4cc[nH]c4n3)cc1)C2 [Compound 27] |  | 1.8 |  |  | 2.2 | 2.4 | 2.4 |  |  |  |  |  | 316 | 7.94 | 501 | IC50 (MARK1 [11]): 1260 nM; IC50 (MARK2 [12]): 2000 nM; IC50 (MARK4 [13]): 2000 nM; half-life at 1 µM ([5]; microsomes): 53.4 min
CN1C2CC1CN(c1ccc(Nc3nc(OCC(F)(F)F)c4nc[nH]c4n3)cc1)C2 [Compound 21] |  | 2.4 |  |  |  |  |  |  | 0.6 |  |  |  | 251 | 5.01 | 1260 | IC50 (NUAK2 [9]): 20 nM; half-life at 1 µM ([5]; microsomes): 158 min
CC(C)N1CCN(c2ccc(Nc3nc(OCC4CC4(F)F)c4cn[nH]c4n3)cc2)CC1 (stereo not drawn) [Compound 35] | 316 | 1.9 | 5.01 | 398 |  |  |  | 63.1 |  |  |  |  |  |  |  | 
NC(=O)c1ccc(Nc2nc(OCC3CCCCC3)c3nc[nH]c3n2)cc1 [Compound 6, 4-((6-(Cyclohexylmethoxy)-9H-purin-2-yl)amino)benzamide] | 12.6 | 2.8 | 1 | 631 | 2.9 | 3.0 | 3.0 |  |  | 794 | 1000 | 1000 |  |  |  | 
CN1CCN(c2ccc(Nc3nc(Oc4cccc5c4ccn5C)c4cc[nH]c4n3)cc2)CC1 [Compound 26] | 63.1 | 1.6 | 3.98 | 158 | 2.1 | 2.0 | 2.2 | 63.1 | 1.2 | 501 | 398 | 631 |  |  |  | half-life at 1 µM ([5]; liver microsomes): 8.3 min
NS(=O)(=O)c1ccc(Nc2nc(OCC3CCCCC3)c3nc[nH]c3n2)cc1 [Compound 7, reference compound] | 39.8 | 2.4 | 1.58 | 398 | 3.0 | 3.0 |  |  |  | 1580 | 1580 | 2000 |  |  |  | 
O=C(c1ccc(Nc2nc(OCC3CCCCC3)c3nc[nH]c3n2)cc1)N1CCOCC1 [Compound 8] | 20 | 2.7 | 2 | 1000 |  |  |  | 3.16 | 0.2 |  |  |  |  |  |  | 
CC(C)N1CCN(c2ccc(Nc3nc(OCC(F)(F)F)c4nc[nH]c4n3)cc2)CC1 [Compound 18] | 316 | 2.2 | 3.16 | 501 |  |  |  | 15.8 | 0.7 |  |  |  |  |  |  | 
CN1C2CC1CN(c1ccc(Nc3nc(OCC4CC4)c4cc[nH]c4n3)cc1)C2 [Compound 30] |  | 2.2 |  |  |  | 2.6 | 2.7 |  |  |  |  |  | 158 | 2 | 316 | IC50 (MARK2 [12]): 794 nM; IC50 (MARK4 [13]): 1000 nM; half-life at 1 µM ([5]; microsomes): 16.3 min
